Where “and” joins values, the source holds several entries; their conditions need not be identical. Equal values may be shown once. Read-outs that look alike come from different tables or passages of the source.
Tests used:
CYP3A4 = molecular target: T1, CYP3A4 (Homo sapiens, UniProt P08684); test: Biotransformation of Compound (A) in human liver microsomes with specific CYP inhibitors; assay type: in vitro ADME
T1 construct: from tissue; host or cells: human liver microsomes

[1] = Toxicokinetics in single dose IV toxicology study in rats; assay type: in vivo
Method: The toxicokinetics of Compound (A) were evaluated in a single dose IV toxicology study in rats. […] Compound (A) was given as an IV infusion (ca. 3 min) at doses of 10, 25, and 30 mg/kg to 3 rats/gender/dose. Serial blood samples were obtained over a period of 24 h after dosing, and plasma concentrations of Compound (A) and Compound (B) were determined using an LC/MS/MS assay with a standard curve range of 2-500 ng/mL for both analytes. At a dose of 10, 25, and 30 mg/kg, the mean CMAX values of Compound (A) in male rats were 6422, 19066, and 24414 ng/mL, respectively; in female rats, the mean CMAX values were 8384, 20524, and 25054 ng/mL, respectively. […] For doses in a ratio of 1:2.5:3 proportion, the mean CMAX values of Compound (A) for males and females were in the ratio of 1:3.0:3.8 and 1:2.5:3.0, respectively, and the AUC values were in the ratio of 1:3.1:4.9 and 1:3.5:4.2, respectively. T-HALF, mean residence time over the time interval zero to infinity MRT(INF), total body clearance (CLT), and VSS were not determined due to the limited sampling used in the study.

[2] = Pharmacokinetics and absolute oral bioavailability of formulations in beagle dogs; assay type: in vivo, adult male beagle dogs; settings: for CMAX, mean / TMAX, median / Cmax / Tmax: n = 3; for AUC(0-t) / Cmax / Tmax: male, beagle, dog, plasma; for AUC(0-t): T = 24 h; for Tmax: read-out: TMAX, median
Method: The absolute oral bioavailability of various formulations of Compound (A) in adult male beagle dogs (n=4) was evaluated. Compound (A) was given as a 10 min intravenous (IV) infusion (0.5 mg/kg), a buffered oral solution (2 mg/kg), and a buffered oral suspension (1 mg/kg).
The design was a single-dose, four-treatment, four-period, non-randomized, crossover design. Compound (A) was given to four adult male beagle dogs as a 10 min IV infusion (0.5 mg/kg), a buffered oral solution (2 mg/kg), or a buffered oral suspension (2 mg/kg). […] Upon reconstitution, the pH of the buffered suspension was about 8.0 and the strength was approximately 0.75 mg/mL. Due to cumulative toxicity the dose for the oral suspension scheduled during the third treatment period was reduced from 2 mg/kg to 1 mg/kg. Furthermore, the fourth treatment was not administered for lack of an evaluable formulation. The wash-out period between treatments was at least 7 days. Serial blood samples were collected over 24 h after dose administration and concentrations of Compound (A) and Compound (B) were determined using a LC/MS/MS assay with a standard curve range of 2-500 ng/mL for both analytes. The LC/MS/MS assay was the same as used in Example 1.
Analytical runs consisted of standard, quality control (QC), and study samples. The plasma volume used for analysis was 0.2 mL and the standard curve range was 2 to 500 ng/mL for both analytes, defining the lower limit of quantitation (LLQ) and upper-limit of quantitation (ULQ), respectively. If the predicted concentration of a study sample was less than that of the lowest standard, the value of the predicted concentration was reported as <LLQ. […]. If the predicted concentration was greater than that of the highest standard, the result of that analysis was reported as >ULQ and an appropriate volume of that sample was diluted with blank plasma and reanalyzed.
Four adult male dogs with venous access for drug administration and blood collection were selected for the study. The dogs were acclimated for at least one week prior to study initiation and were housed in individual steel cages. Animals were identified by a unique number and by a tag attached to the cage. The dogs were offered drinking water ad libitum, and fed once a day with standard canine diet except for an overnight (about 12 h) fast prior to dosing which was continued until 4 h after dosing. Fifteen (15) minutes prior to administration of the buffered oral suspension, the dogs were pretreated with pentagastrin (6 :g/kg; intramuscularly). Pentagastrmn pretreatment was used only for the oral suspension leg. The IV dose was administered as a constant-rate infusion over a period of 10 min using a calibrated infusion pump. The oral solution and suspension doses were administered by gavage and the gavage tubes were rinsed with 20 mL of water.
Serial blood samples (3 mL) were collected at predose, and 10 min (IV only; end-of-infusion), 15 min, 20 min (IV only), 30 min, and 45 min, and 1 h, 1.5 h, 2 h, 4 h, 6 h, 8 h, 12 h, and 24 h after dosing. Blood samples were collected into Vacutainer® tubes containing K3-EDTA as the anticoagulant and the contents of each tube were mixed by gently inverting the tube. The blood samples were then placed immediately on chipped ice. Plasma was obtained within 30 min of collection by centrifuging the tubes at approximately 4° C. and 2000×g for 5 min. Plasma samples were stored at or below −20° C. until analyzed for the concentrations Compound (A) and Compound (B).
The peak plasma concentration (CMAX) and the time to reach peak concentration (TMAX) were recorded directly from experimental observations. The area under the plasma concentration-time curve from time zero to T (AUC(0−T)), where T is the time of the last measurable plasma concentration, was calculated using the trapezoidal rule (See, M. Gibaldi, et al., Pharmacokinetics, 2nd ed., New York, N.Y., Marcel Decker, p. 445-91982). […]

[3] = Kinetics in single dose IV toxicology study in dogs; assay type: in vivo; settings: for mean CMAX in plasma: combined across gender; for AUC / Cmax: both sexes, dog, plasma; for Cmax: read-out: mean CMAX of Compound (B) in plasma
Method: The kinetics of Compound (A) were also evaluated as part of a single dose IV toxicology study. Compound (A) was given as an IV infusion (ca. 15 min) at doses of 0.5 and 5 mg/kg to 2 dogs/gender/dose. […] Blood samples were obtained over a period of 48 h after dosing, and plasma concentrations of Compound (A) and Compound (B) were determined using the LC/MS/MS assay with a standard curve range of 2-500 ng/mL for both analytes. […] T-HALF, MRT(INF), CLT, and VSS were not determined due to the limited sampling used in the study.

[4] = female rats, IV infusion 10 mg/kg
[5] = female rats, IV infusion 25 mg/kg
[6] = female rats, IV infusion 30 mg/kg
[7] = male rats, IV infusion 10 mg/kg
[8] = male rats, IV infusion 25 mg/kg
[9] = male rats, IV infusion 30 mg/kg
[10] = dogs, IV Compound (A) 0.5 mg/kg
[11] = dogs, buffered oral solution of Compound (A) 2 mg/kg
[12] = two dogs with both IV and oral solution data
[13] = IV infusion of Compound (A) 0.5 mg/kg
[14] = IV infusion of Compound (A) 5 mg/kg

T1 sequence (P08684 whole entry): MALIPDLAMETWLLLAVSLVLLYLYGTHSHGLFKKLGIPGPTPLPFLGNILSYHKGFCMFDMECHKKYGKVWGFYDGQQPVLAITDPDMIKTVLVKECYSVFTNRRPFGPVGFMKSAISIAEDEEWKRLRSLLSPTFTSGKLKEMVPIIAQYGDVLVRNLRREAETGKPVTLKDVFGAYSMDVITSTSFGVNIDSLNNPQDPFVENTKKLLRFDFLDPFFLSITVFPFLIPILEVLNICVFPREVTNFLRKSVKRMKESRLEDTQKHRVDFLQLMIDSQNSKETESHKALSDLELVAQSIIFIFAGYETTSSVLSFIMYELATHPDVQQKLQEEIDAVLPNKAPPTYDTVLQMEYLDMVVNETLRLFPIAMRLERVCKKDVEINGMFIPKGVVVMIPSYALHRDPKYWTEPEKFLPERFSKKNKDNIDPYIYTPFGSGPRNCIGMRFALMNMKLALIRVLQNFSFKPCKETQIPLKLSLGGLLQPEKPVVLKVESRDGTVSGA

C/C(=C\c1csc(C)n1)[C@@H]1C[C@@H]2O[C@]2(C)CCC[C@H](C)[C@H](O)[C@@H](C)C(=O)C(C)(C)[C@@H](O)CC(=O)N1 (relative stereo) [Compound (A), [1S-[1R*,3R*(E),7R*,10S*,11R*,12R*,16S*]]-7,11-dihydroxy 8,8,10,12,16-pentamethyl-3-[1-methyl-2-(2-methyl-4-thiazolyl)ethenyl-4-aza-17-oxobicyclo[14.1.0]heptadecane-5,9-dione]
cytochrome P450 responsible for metabolism (CYP3A4): may be a substrate for CYP3A4
mean CMAX [1, 4]: 8384 ng/mL
mean area under the concentration vs. time curve (AUC) [1, 4]: 8156 ng·h/mL
mean CMAX [1, 5]: 20524 ng/mL
mean area under the concentration vs. time curve (AUC) [1, 5]: 28476 ng·h/mL
mean CMAX [1, 6]: 25054 ng/mL
mean area under the concentration vs. time curve (AUC) [1, 6]: 34563 ng·h/mL
mean CMAX [1, 7]: 6422 ng/mL
mean area under the concentration vs. time curve (AUC) [1, 7]: 3864 ng·h/mL
mean CMAX [1, 8]: 19066 ng/mL
mean area under the concentration vs. time curve (AUC) [1, 8]: 11980 ng·h/mL
mean CMAX [1, 9]: 24414 ng/mL
mean area under the concentration vs. time curve (AUC) [1, 9]: 19269 ng·h/mL
CMAX, mean [2, 10]: 1120 (189) ng/mL
TMAX, median [2, 10]: 10.2 min
AUC(0−T), mean (SD) [2, 11]: 560 (159) h.ng./mL
CMAX, mean [2, 11]: 365 (40.9) ng/mL
TMAX, median [2, 11]: 30 min
mean AUC after oral solution higher than dose-normalized mean AUC of oral toxicity study ([2]; dogs, oral solution 1.3 mL/kg vs 0.4 mL/kg): approximately 2 fold
absolute oral bioavailability, individual dogs [2, 12]: 48.3% and 30.6%
absolute oral bioavailability, mean value [2, 12]: 39.5%
mean AUC in plasma [3, 13]: 316 ng·h/mL
mean CMAX in plasma [3, 13]: 218 ng/mL
mean AUC in plasma [3, 14]: 6925 ng·h/mL
mean CMAX in plasma [3, 14]: 5118 ng/mL

CC1=NC(/C=C/[C@@H]2C[C@@H](O)[C@](C)(O)CCC[C@H](C)[C@H](O)[C@@H](C)C(=O)C(C)(C)[C@@H](O)CC(=O)N2)CS1 (stereo partly drawn) [Compound (B)]
AUC ([1]; both sexes, rat, plasma, rats, IV Compound (A) 10-30 mg/kg, read-out: AUC of Compound (B) across gender and dose groups): 222 to 2000 ng·h/mL
Cmax ([1]; both sexes, rat, plasma, rats, IV Compound (A) 10-30 mg/kg, read-out: CMAX of Compound (B) across gender and dose groups): 499 to 1790 ng/mL
mean plasma concentration ([2]; dogs, IV Compound (A) 0.5 mg/kg, 0.17 h): 0 ng/mL
mean plasma concentration ([2]; dogs, IV Compound (A) 0.5 mg/kg, 0.75 h): 0 ng/mL
mean plasma concentration ([2]; dogs, IV Compound (A) 0.5 mg/kg, 1 h): 0 ng/mL
mean plasma concentration ([2]; dogs, IV Compound (A) 0.5 mg/kg, 1.5 h): 0 ng/mL
mean plasma concentration ([2]; dogs, IV Compound (A) 0.5 mg/kg, 2 h): 0 ng/mL
mean plasma concentration ([2]; dogs, IV Compound (A) 0.5 mg/kg, 4 h): 0 ng/mL
mean plasma concentration ([2]; dogs, IV Compound (A) 0.5 mg/kg, 6 h): 0 ng/mL
mean plasma concentration ([2]; dogs, IV Compound (A) 0.5 mg/kg, 8 h): 0 ng/mL
mean plasma concentration ([2]; dogs, IV Compound (A) 0.5 mg/kg, 12 h): 0 ng/mL
mean plasma concentration ([2]; dogs, IV Compound (A) 0.5 mg/kg, 24 h): 0 ng/mL
mean plasma concentration ([2]; dogs, buffered oral solution of Compound (A) 2 mg/kg, 0.25 h): 4.1 ng/mL
mean plasma concentration ([2]; dogs, buffered oral solution of Compound (A) 2 mg/kg, 0.5 h): 21.3 ng/mL
mean plasma concentration ([2]; dogs, buffered oral solution of Compound (A) 2 mg/kg, 0.75 h): 27.2 ng/mL
mean plasma concentration ([2]; dogs, buffered oral solution of Compound (A) 2 mg/kg, 1 h): 23.8 ng/mL
mean plasma concentration ([2]; dogs, buffered oral solution of Compound (A) 2 mg/kg, 2 h): 8.4 ng/mL
mean plasma concentration ([2]; dogs, buffered oral solution of Compound (A) 2 mg/kg, 4 h): 2.4 ng/mL
mean plasma concentration ([2]; dogs, buffered oral solution of Compound (A) 2 mg/kg, 6 h): 0.8 ng/mL
mean plasma concentration ([2]; dogs, buffered oral solution of Compound (A) 2 mg/kg, 8 h): 0 ng/mL
mean plasma concentration ([2]; dogs, buffered oral solution of Compound (A) 2 mg/kg, 12 h): 0 ng/mL
mean plasma concentration ([2]; dogs, buffered oral solution of Compound (A) 2 mg/kg, 24 h): 0 ng/mL
AUC(0-t) [2, 10]: 0.69 ng·h/mL
Cmax [2, 10]: 3.8 ng/mL
Tmax [2, 10]: 10.2 min
AUC(0-t) [2, 11]: 45.2 ng·h/mL
Cmax [2, 11]: 27.2 ng/mL
Tmax [2, 11]: 45 min
AUC [3, 13]: 55 ng·h/mL
Cmax [3, 13]: 95.6 ng/mL
AUC [3, 14]: 1110 ng·h/mL
Cmax [3, 14]: 984 ng/mL

— patent USRE40387E1, “Pharmaceutical compositions, dosage forms and methods for oral administration of epothilones” (Bristol-Myers Squibb Company, priority 2001, dated 2008)
